Data set [1] is described as follows: Loss of tail withdrawal reflex (LOTWR) in rats, single intravenous injection, dose escalation for efficacy and severe adverse reactions. The class given is in vivo, SD rats. To be noted: rat, in vivo, single intravenous injection, minimum dose resulting in serious adverse reactions / minimum effective dose, class symbol, read-out: The safety therapeutic index. As for the experimental part:
(§1) Using the loss of tail withdrawal reflex (LOTWR) in rats as an indicator, the potent analgesic effect of the compounds according to the present invention was evaluated.
(§2) 1.1 Experimental animals: Adult male SD rats weighing between 220-300 g were selected for the experiment. The rats were housed in sawdust-bedded cages with a temperature of 25+1°C, humidity ranging from 40% to 60%, and a 12-hour light/12-hour dark cycle. Each cage contained no more than 5 rats, with free access to water and food.
(§3) • (1) The compound of the present invention, along with the positive control drug remifentanil and the negative control (vehicle), were administered in fixed volumes. A dose escalation approach was employed to determine the minimum effective dose at which the compound of the present invention produces potent analgesic effects, as well as the minimum dose at which severe adverse reactions first appear. • (2) LOTWR lasting for 30 seconds was used as the criterion for generating potent analgesic effects. During the experiment, drugs were administered via the tail vein of rats, with a dosage volume of 0.6 mL per rat and a dosage rate of 0.02 mL/s. Subsequently, an alligator clip was applied at a distance of 1 cm from the base of the rat's tail, clamping once longitudinally and once transversely before being left in place. Meanwhile, the distal end of the alligator clip was continuously oscillated (30 times/min) to continuously generate stimulation. […] When all results were "no LOTWR" after 10 minutes of testing (5 trials), the test was stopped and recorded as "ineffective." • (3) All compounds would undergo a dose escalation for efficacy evaluation, starting from 1 mg/kg (due to the high potency of remifentanil, the lowest dose was set at 1 µg/kg), followed by 5 mg/kg, 10 mg/kg, 20 mg/kg, and so on (increasing by 20 mg/kg increments after 20 mg/kg). The dose escalation would be stopped when rats show signs of death, and the lowest effective dose and the lowest dose at which severe adverse reactions occur would be recorded throughout the process. In this study, severe adverse reactions are defined as apnea, generalized tonic rigidity, convulsions, opisthotonus, seizures, etc.
(§4) 1.3 Evaluation indicators: the minimum effective dose; the minimum dose resulting in serious adverse reactions; the safety therapeutic index = "the minimum dose resulting in serious adverse reactions" / "the minimum effective dose".

Data set [2] relates to rats. Described as above. The class given is in vivo, SD rats. Conditions: Rattus norvegicus, single intravenous injection (tail vein), LOTWR lasting for 30 seconds as criterion, class symbol, read-out: The minimum effective dose. As to the method:
as §1, §2, §3, §4

These results are taken from patent EP4786458A1, “ANALGESIC COMPOUND, PREPARATION METHOD THEREFOR, AND USE THEREOF” (West China Hospital, Sichuan University, priority 2023, dated 2025).

As for `Cc1ccc(NCC(=O)OCc2ccsc2)c(N(C)C)c1` [Example 1], the selectivity ratio in data set [1] is above 4. The minimal effective dose in data set [2] was at most 10 mg/kg.

For `Cc1ccc(NCC(=O)OCc2cccs2)cc1N(C)C` [Example 8], the selectivity ratio in data set [1] was above 4. The minimal effective dose in data set [2] lay within 10 to 20 mg/kg.

For `Cc1ccc(OCC(=O)NCc2ccsc2)c(N(C)C)c1` [Example 36], in data set [1], the selectivity ratio was 2 to 4. Also, in data set [2], the minimal effective dose lay in the range of 10 to 20 mg/kg.

Consider `CN(C)c1ccccc1NCC(=O)OCc1ccsc1` [Example 15], for which, in data set [1], the selectivity ratio is 2 to 4. In addition, the minimal effective dose in data set [2] was above 30 mg/kg.

As to `Cc1ccc(NCC(=O)NCc2ccco2)c(N(C)C)c1` [Example 11], in data set [1], the selectivity ratio is above 4. The minimal effective dose in data set [2] was at most 10 mg/kg.

Regarding `Cc1ccc(NCC(=O)NCc2cc(C)nn2C)c(N(C)C)c1` [Example 31], the selectivity ratio in data set [1] was in the range of 2 to 4. The minimal effective dose in data set [2] fell in the range of 10 to 20 mg/kg.

For the molecule `Cc1ccc(NCC(=O)NCc2ccco2)cc1N(C)C` [Example 21], the selectivity ratio in data set [1] was at most 2. Also, in data set [2], the minimal effective dose is above 30 mg/kg.

As to `Cc1ccc(NCC(=O)NCc2ncc[nH]2)c(N(C)C)c1` [Example 22], the selectivity ratio in data set [1] is at most 2. Further, in data set [2], the minimal effective dose was above 30 mg/kg.

Turning to `Cc1ccc(NCC(=O)NCc2ccns2)cc1N(C)C` [Example 25], the selectivity ratio in data set [1] was 2 to 4. For the same molecule, in data set [2], the minimal effective dose fell in the range of 10 to 20 mg/kg.

In the case of `Cc1ccc(NCC(=O)NCc2ccccc2)c(N(C)C)c1` [Example 27], the selectivity ratio in data set [1] is at most 2. Further, the minimal effective dose in data set [2] was at most 10 mg/kg.

As for `Cc1ccc(NCC(=O)NCc2cnsc2)c(N(C)C)c1` [Example 19], the selectivity ratio in data set [1] was 2 to 4. Also, the minimal effective dose in data set [2] is above 30 mg/kg.

On to `Cc1ccc(NCC(=O)OCc2ccno2)c(N(C)C)c1` [Example 40], for which the selectivity ratio in data set [1] is at most 2. The minimal effective dose in data set [2] is above 30 mg/kg.

As for `Cc1ccc(NCC(=O)NCc2ccnn2C)c(N(C)C)c1` [Example 33], the selectivity ratio in data set [1] is at most 2. For the same molecule, the minimal effective dose in data set [2] is above 30 mg/kg.

As for `Cc1ccc(NCC(=O)OCc2cccs2)c(N(C)C)c1` [Example 2], the selectivity ratio in data set [1] lay in the range of 2 to 4. Besides, in data set [2], the minimal effective dose is above 30 mg/kg.

As to `Cc1ccc(NCC(=O)OCc2ccnn2C)cc1N(C)C` [Example 35], the selectivity ratio in data set [1] is above 4. The minimal effective dose in data set [2] was at most 10 mg/kg.

`Cc1cc(C)cc(CNC(=O)CNc2ccc(C)cc2N(C)C)c1` [Example 28]: in data set [1], the selectivity ratio is at most 2. In data set [2], the minimal effective dose fell in the range of 20 to 30 mg/kg.

Turning to `Cc1ccc(OCC(=O)OCc2cccs2)c(N(C)C)c1` [Example 6], the selectivity ratio in data set [1] was 2 to 4. The minimal effective dose in data set [2] was at most 10 mg/kg.

With `Cc1ccc(NCC(=O)OCc2ccco2)cc1N(C)C` [Example 39], the selectivity ratio in data set [1] is above 4. Moreover, in data set [2], the minimal effective dose lay in the range of 10 to 20 mg/kg.

In the case of `Cc1ccc(NCC(=O)NCc2ccno2)c(N(C)C)c1` [Example 9], the selectivity ratio in data set [1] was above 4. Moreover, in data set [2], the minimal effective dose was at most 10 mg/kg.

In the case of `Cc1ccc(NCC(=O)OCc2ccoc2)cc1N(C)C` [Example 30], the selectivity ratio in data set [1] lay within 2 to 4. In data set [2], the minimal effective dose is above 30 mg/kg.

With `Cc1ccc(NCC(=O)OCc2cc(C)nn2C)c(N(C)C)c1` [Example 32], in data set [1], the selectivity ratio was above 4. Moreover, the minimal effective dose in data set [2] was at most 10 mg/kg.

Turning to `CN(C)c1cccc(NCC(=O)OCc2cccs2)c1` [Example 13], the selectivity ratio in data set [1] is at most 2. Moreover, in data set [2], the minimal effective dose is above 30 mg/kg.

Regarding `Cc1ccc(SCC(=O)OCc2ccco2)c(N(C)C)c1` [Example 20], the selectivity ratio in data set [1] was at most 2. Moreover, the minimal effective dose in data set [2] is above 30 mg/kg.

Take `Cc1cc(COC(=O)CNc2ccc(C)c(N(C)C)c2)n(C)n1` [Example 37]: in data set [1], the selectivity ratio is above 4. Also, the minimal effective dose in data set [2] is at most 10 mg/kg.

As for `Cc1ccc(SCC(=O)OCc2cccs2)c(N(C)C)c1` [Example 14], the selectivity ratio in data set [1] lay in the range of 2 to 4. Further, in data set [2], the minimal effective dose is above 30 mg/kg.

For the molecule `Cc1ccc(NCC(=O)OCc2ccnn2C)c(N(C)C)c1` [Example 34], the selectivity ratio in data set [1] was above 4. Besides, in data set [2], the minimal effective dose was at most 10 mg/kg.

Turning to `CN(C)c1cc(F)ccc1NCC(=O)OCc1cccs1` [Example 5], the selectivity ratio in data set [1] is at most 2. Moreover, in data set [2], the minimal effective dose fell in the range of 20 to 30 mg/kg.

Turning to `CN(C)c1ccccc1NCC(=O)OCc1cccs1` [Example 4], the selectivity ratio in data set [1] is above 4. The minimal effective dose in data set [2] is at most 10 mg/kg.

Regarding `Cc1ccc(NCC(=O)NCc2ccoc2)c(N(C)C)c1` [Example 16], the selectivity ratio in data set [1] was at most 2. The minimal effective dose in data set [2] was above 30 mg/kg.

Consider `Cc1ccc(NCC(=O)OCc2ccoc2)c(N(C)C)c1` [Example 18], for which the selectivity ratio in data set [1] was at most 2. Further, the minimal effective dose in data set [2] was above 30 mg/kg.

Regarding `Cc1ccc(NCC(=O)NCc2ccns2)c(N(C)C)c1` [Example 17], the selectivity ratio in data set [1] was above 4. Further, the minimal effective dose in data set [2] lay within 10 to 20 mg/kg.

With `Cc1ccc(OCC(=O)NCc2cccs2)c(N(C)C)c1` [Example 10], the selectivity ratio in data set [1] was above 4. In data set [2], the minimal effective dose is at most 10 mg/kg.

In the case of `Cc1ccc(NCC(=O)OCc2ccco2)c(N(C)C)c1` [Example 7], in data set [1], the selectivity ratio was in the range of 2 to 4. In data set [2], the minimal effective dose fell in the range of 20 to 30 mg/kg.

As to `Cc1ccc(OCC(=O)OCc2cccs2)cc1N(C)C` [Example 24], the selectivity ratio in data set [1] is at most 2. The minimal effective dose in data set [2] was above 30 mg/kg.

With `Cc1ccc(OCC(=O)NCc2ccco2)c(N(C)C)c1` [Example 12], the selectivity ratio in data set [1] is above 4. Moreover, in data set [2], the minimal effective dose is 10 to 20 mg/kg.

With `Cc1ccc(NCC(=O)OCc2ccsc2)cc1N(C)C` [Example 38], the selectivity ratio in data set [1] was at most 2. Also, the minimal effective dose in data set [2] is above 30 mg/kg.

`Cc1ccc(OCC(=O)OCc2ccco2)c(N(C)C)c1` [Example 23]: in data set [1], the selectivity ratio is at most 2. The minimal effective dose in data set [2] was above 30 mg/kg.

For the molecule `Cc1ccc(NCC(=O)NCc2cccs2)cc1N(C)C` [Example 29], the selectivity ratio in data set [1] was at most 2. In data set [2], the minimal effective dose is above 30 mg/kg.
